Experiments:
[1] = test system: LN cells of DR4 Tg mice, antigen pulsed onto DR4+ 1088 EBV-B; assay: IFN-γ ELISA of expanded LN T cells from mTRP-1-immunized DR4 Tg mice; format: cell-based, mouse; details: protein pulsed onto DR4+ 1088 EBV-B at 25 μg/ml; compared with mTRP-1 protein
[2] = test system: LN cells of TRP1-/-//DR4+ (KO) and TRP1+/-//DR4+ (WT) mice, antigen pulsed onto DR4+ 1088 EBV-B; assay: Ex vivo IFN-γ ELISPOT of LN cells from hTRP-1-immunized KO and WT mice; format: cell-based, mouse; details: for ex vivo ELISPOT reactivity, KO-derived compared with WT-derived CD4+ T cells: peptide 100 μM or protein 50 μg/ml pulsed onto 1088 EBV-B, 24 hours; for T cell frequency by ex vivo IFN-γ ELISPOT titration (mean): peptide 100 μM, Fig. 2D
[3] = biological target: HLA-DR4 (HLA-DRB1*0401) (Homo sapiens, UniProt P01903+P01911, A100K/A169T/F76Y/I96L/K127E/L162R/M171V/N62H/P40V/Q125Y/R42H/S133A/S149N/S66Y/V115G/V209L/W38E); details: competitive binding assay, purified class II, 48h in PBS with NP40; Fig. 1B

Molecule	specific IFN-γ secretion by ELISA, protein [1]	ex vivo ELISPOT reactivity, KO-derived compared with WT-derived CD4+ T cells [2]	relative affinity (IC50), human variant compared with murine counterpart [3]	T cell frequency by ex vivo IFN-γ ELISPOT titration (mean) ([2]; TRP1+/-//DR4+ (WT) LN cells)	T cell frequency by ex vivo IFN-γ ELISPOT titration (mean) ([2]; TRP1-/-//DR4+ (KO) LN cells)
hTRP-1 protein: recombinant human TRP-1 protein	superior	significantly greater			
hTRP-1_277-297: HLA-DRB1*0401-restricted epitope from human TRP-1, positions 277-297 (ISPNSVFSQWRVVCDSLEDYD; UniProt P17643 277-297, looked up, fragment)			nearly three times less	158	163
mTRP-1 protein: recombinant murine TRP-1 protein		significantly greater			
OVA: recombinant full-length OVA protein purchased from Sigma, control protein (protein, UniProt P01012 1-386, looked up, full-length) MGSIGAASMEFCFDVFKELKVHHANENIFYCPIAIMSALAMVYLGAKDSTRTQINKVVRFDKLPGFGDSIEAQCGTSVNVHSSLRDILNQITKPNDVYSFSLASRLYAEERYPILPEYLQCVKELYRGGLEPINFQTAADQARELINSWVESQTNGIIRNVLQPSSVDSQTAMVLVNAIVFKGLWEKAFKDEDTQAMPFRVTEQESKPVQMMYQIGLFRVASMASEKMKILELPFASGTMSMLVLLPDEVSGLEQLESIINFEKLTEWTSSNVMEERKIKVYLPRMKMEEKYNLTSVLMAMGITDVFSSSANLSGISSAESLKISQAVHAAHAEINEAGREVVGSAEAGVDAASVSEEFRADHPFLFCIKHIATNAVLFFGRCVSP	No significant immune response				

Source: publication PMC2747815 (Journal of immunotherapy (Hagerstown, Md. : 1997), 2009)
